Test results taken from ChEMBL document CHEMBL5576128, “Discovery of Potent Isoquinolinequinone N-Oxides to Overcome Cancer Multidrug Resistance” (J Med Chem, 2024).
One block for each compound: values may come before it. Activity calls are given as the source filed them. The calls are words filed in the database; no cut-off is given here.

Assays:
NCI-H460 [1] = assay: Effect on LC3-I expression in human NCI-H460 cells at 0.35 to 0.7 uM incubated for 48 hrs by Western blotting analysis; type: functional, cell-based; settings: dose 0.35-0.7 µM
NCI-H460 [2] = assay: Upregulation of p53 expression in human NCI-H460 cells at 0.35 to 0.7 uM incubated for 48 hrs by Western blotting analysis; type: functional, cell-based; settings: dose 0.35-0.7 µM
NCI-H460 [3] = assay: Effect on human NCI-H460 cells […] assessed as change in circularity at 0.35 to 0.7 uM incubated for 48 hrs; type: functional, cell-based; settings: dose 0.35-0.7 µM
NCI-H460 [4] = assay: Effect on p62 expression in human NCI-H460 cells at 0.35 to 0.7 uM incubated for 48 hrs by Western blotting analysis; type: functional, cell-based; settings: dose 0.35-0.7 µM
[5] = system: Doxorubicin-resistant NCI-H460/R; assay: Effect on human Doxorubicin-resistant NCI-H460/R cells […] assessed as change in circularity at 0.35 to 0.7 uM incubated for 48 hrs; type: functional, cell-based; settings: dose 0.35-0.7 µM
[6] = system: Doxorubicin-resistant NCI-H460/R; assay: Inhibition of human Doxorubicin-resistant NCI-H460/R cells spheroid viability by CellTiter-Glo 3D viability assay; type: functional, cell-based
[7] = target: ATP-dependent translocase ABCB1 (Homo sapiens, UniProt P08183); assay: Inhibition of P-gp mediated drug efflux in human NCI-H460 cells assessed as accumulation of rhodamine-123 accumulation at 10 to 20 uM incubated for 1 hr by flow cytometry analysis; type: cell-based; settings: nci-h460, 1 h, dose 10-20 µM
DLD-1 [8] = assay: Inhibition of human DLD-1 cells spheroid viability by CellTiter-Glo 3D viability assay; type: functional, cell-based
NCI-H460 [9] = assay: Upregulation of TP53BP1 expression in human NCI-H460 cells at high concentration incubated for 48 hrs by Western blotting analysis; type: functional, cell-based
NCI-H460 [10] = assay: Induction of DNA damage in human NCI-H460 cells at 0.7 uM incubated for 48 hrs by Western blotting analysis; type: functional, cell-based
DLD-1 [11] = assay: Effect on human DLD-1 cells […] assessed as change in diameter at 0.35 to 0.7 uM incubated for 48 hrs; type: functional, cell-based; settings: dose 0.35-0.7 µM
NCI-H460 [12] = assay: Downregulation of procaspase-3 expression in human NCI-H460 cells at 0.35 to 0.7 uM incubated for 48 hrs by Western blotting analysis; type: functional, cell-based; settings: dose 0.35-0.7 µM
NCI-H460 [13] = assay: Induction of cell cycle arrest in human NCI-H460 cells assessed as decrease in S phase cells at 0.35 to 0.7 uM incubated for 48 hrs by propidium iodide staining based flow cytometry analysis; type: functional; settings: dose 0.35-0.7 µM
MRC5 = assay: Cytotoxicity against human MRC5 cells at less than 0.5 uM incubated for 48 hrs by SRB method; type: toxicity, cell-based; settings: mrc5, 48 h
NCI-H460 [14] = assay: Effect on PARP-1 expression in human NCI-H460 cells at 0.35 to 0.7 uM incubated for 48 hrs by Western blotting analysis; type: functional, cell-based; settings: dose 0.35-0.7 µM
[15] = system: Paclitaxel-resistant DLD1-TxR cells; assay: Effect on human Paclitaxel-resistant DLD1-TxR cells […] assessed as change in compactness at 0.35 to 0.7 uM incubated for 48 hrs; type: functional, cell-based; settings: dose 0.35-0.7 µM
NCI-H460 [16] = assay: Effect on LC3-II expression in human NCI-H460 cells at 0.35 to 0.7 uM incubated for 48 hrs by Western blotting analysis; type: functional, cell-based; settings: dose 0.35-0.7 µM
NCI-H460 [17] = assay: Inhibition of cell proliferation in human NCI-H460 cells at 0.35 to 0.7 uM incubated for 48 hrs by BrdU incorporation assay; type: functional, cell-based; settings: dose 0.35-0.7 µM
DLD-1 [18] = assay: Effect on human DLD-1 cells […] assessed as change in circularity at 0.35 to 0.7 uM incubated for 48 hrs; type: functional, cell-based; settings: dose 0.35-0.7 µM
MCF-12A = assay: Cytotoxicity against human MCF-12A cells at 1 to 5 uM incubated for 48 hrs by SRB method; type: toxicity, cell-based; settings: dose 1-5 µM
NCI-H460 [19] = assay: Inhibition of human NCI-H460 cells spheroid viability by CellTiter-Glo 3D viability assay; type: functional, cell-based
NCI-H460 [20] = assay: Effect on human NCI-H460 cells […] assessed as change in compactness at 0.35 to 0.7 uM incubated for 48 hrs; type: functional, cell-based; settings: dose 0.35-0.7 µM
NCI-H460 [21] = assay: Induction of cell cycle arrest in human NCI-H460 cells assessed as increase in G1 phase cells at 0.35 to 0.7 uM incubated for 48 hrs by propidium iodide staining based flow cytometry analysis; type: functional; settings: dose 0.35-0.7 µM
NCI-H460 [22] = assay: Effect on human NCI-H460 cells […] assessed as change in diameter at 0.35 to 0.7 uM incubated for 48 hrs; type: functional, cell-based; settings: dose 0.35-0.7 µM
NCI-H460 [23] = assay: Induction of cell cycle arrest in human NCI-H460 cells assessed as increase in sub-G1 phase cells at 0.35 to 0.7 uM incubated for 48 hrs by propidium iodide staining based flow cytometry analysis; type: functional; settings: dose 0.35-0.7 µM
NCI-H460 [24] = assay: Upregulation of cyclin D1 expression in human NCI-H460 cells at 0.35 to 0.7 uM incubated for 48 hrs by Western blotting analysis; type: functional, cell-based; settings: dose 0.35-0.7 µM
NCI-H460 [25] = assay: Upregulation of p-histone H2A.X expression in human NCI-H460 cells at high concentration incubated for 48 hrs by Western blotting analysis; type: functional, cell-based
NCI-H460 [26] = assay: Upregulation of p21 expression in human NCI-H460 cells at 0.7 uM incubated for 48 hrs by Western blotting analysis; type: functional, cell-based
[27] = system: Paclitaxel-resistant DLD1-TxR cells; assay: Effect on human Paclitaxel-resistant DLD1-TxR cells […] assessed as change in circularity at 0.35 to 0.7 uM incubated for 48 hrs; type: functional, cell-based; settings: dose 0.35-0.7 µM
[28] = system: Paclitaxel-resistant DLD1-TxR cells; assay: Inhibition of human Paclitaxel-resistant DLD1-TxR cells spheroid viability by CellTiter-Glo 3D viability assay; type: functional, cell-based
[29] = system: Paclitaxel-resistant DLD1-TxR cells; assay: Effect on human Paclitaxel-resistant DLD1-TxR cells […] assessed as change in diameter at 0.35 to 0.7 uM incubated for 48 hrs; type: functional, cell-based; settings: dose 0.35-0.7 µM
[30] = system: Doxorubicin-resistant NCI-H460/R; assay: Effect on human Doxorubicin-resistant NCI-H460/R cells […] assessed as change in diameter at 0.35 to 0.7 uM incubated for 48 hrs; type: functional, cell-based; settings: dose 0.35-0.7 µM
NCI-H460 [31] = assay: Induction of apoptosis in human NCI-H460 cells at 0.35 to 0.7 uM incubated for 48 hrs by Annexin-V FITC/propidium iodide staining based flow cytometry analysis; type: functional, cell-based; settings: dose 0.35-0.7 µM
DLD-1 [32] = assay: Effect on human DLD-1 cells […] assessed as change in compactness at 0.35 to 0.7 uM incubated for 48 hrs; type: functional, cell-based; settings: dose 0.35-0.7 µM
[33] = system: Doxorubicin-resistant NCI-H460/R; assay: Effect on human Doxorubicin-resistant NCI-H460/R cells […] assessed as change in compactness at 0.35 to 0.7 uM incubated for 48 hrs; type: functional, cell-based; settings: dose 0.35-0.7 µM
NCI-H460 [34] = assay: Inhibition of cell growth in human NCI-H460 cells incubated for 48 hrs by trypan blue exclusion assay; type: functional, cell-based
NCI-H460 [35] = assay: Induction of ROS accumulation in human NCI-H460 cells at 0.7 to 5 uM incubated for 6 hrs by CM-H2DCFDA staining based flow cytometry analysis; type: functional, cell-based; settings: dose 0.7-5 µM
NCI-H460 [36] = assay: Inhibition of cell proliferation in human NCI-H460 cells at 50 nM incubated for 48 hrs by BrdU incorporation assay; type: functional, cell-based
NCI-H460 [37] = assay: Inhibition of human NCI-H460 cells […] at 50 nM incubated for 48 hrs; type: functional, cell-based
[38] = system: Doxorubicin-resistant NCI-H460/R; assay: Inhibition of human Doxorubicin-resistant NCI-H460/R cells […] assessed as reduction in viability at 2 uM incubated for 48 hrs; type: functional, cell-based
NCI/ADR-RES = assay: Potency index, ratio of doxorubicin GI50 to test compound GI50 for human NCI/ADR-RES cells; type: functional

ATP-dependent translocase ABCB1, sequence (P08183 whole entry): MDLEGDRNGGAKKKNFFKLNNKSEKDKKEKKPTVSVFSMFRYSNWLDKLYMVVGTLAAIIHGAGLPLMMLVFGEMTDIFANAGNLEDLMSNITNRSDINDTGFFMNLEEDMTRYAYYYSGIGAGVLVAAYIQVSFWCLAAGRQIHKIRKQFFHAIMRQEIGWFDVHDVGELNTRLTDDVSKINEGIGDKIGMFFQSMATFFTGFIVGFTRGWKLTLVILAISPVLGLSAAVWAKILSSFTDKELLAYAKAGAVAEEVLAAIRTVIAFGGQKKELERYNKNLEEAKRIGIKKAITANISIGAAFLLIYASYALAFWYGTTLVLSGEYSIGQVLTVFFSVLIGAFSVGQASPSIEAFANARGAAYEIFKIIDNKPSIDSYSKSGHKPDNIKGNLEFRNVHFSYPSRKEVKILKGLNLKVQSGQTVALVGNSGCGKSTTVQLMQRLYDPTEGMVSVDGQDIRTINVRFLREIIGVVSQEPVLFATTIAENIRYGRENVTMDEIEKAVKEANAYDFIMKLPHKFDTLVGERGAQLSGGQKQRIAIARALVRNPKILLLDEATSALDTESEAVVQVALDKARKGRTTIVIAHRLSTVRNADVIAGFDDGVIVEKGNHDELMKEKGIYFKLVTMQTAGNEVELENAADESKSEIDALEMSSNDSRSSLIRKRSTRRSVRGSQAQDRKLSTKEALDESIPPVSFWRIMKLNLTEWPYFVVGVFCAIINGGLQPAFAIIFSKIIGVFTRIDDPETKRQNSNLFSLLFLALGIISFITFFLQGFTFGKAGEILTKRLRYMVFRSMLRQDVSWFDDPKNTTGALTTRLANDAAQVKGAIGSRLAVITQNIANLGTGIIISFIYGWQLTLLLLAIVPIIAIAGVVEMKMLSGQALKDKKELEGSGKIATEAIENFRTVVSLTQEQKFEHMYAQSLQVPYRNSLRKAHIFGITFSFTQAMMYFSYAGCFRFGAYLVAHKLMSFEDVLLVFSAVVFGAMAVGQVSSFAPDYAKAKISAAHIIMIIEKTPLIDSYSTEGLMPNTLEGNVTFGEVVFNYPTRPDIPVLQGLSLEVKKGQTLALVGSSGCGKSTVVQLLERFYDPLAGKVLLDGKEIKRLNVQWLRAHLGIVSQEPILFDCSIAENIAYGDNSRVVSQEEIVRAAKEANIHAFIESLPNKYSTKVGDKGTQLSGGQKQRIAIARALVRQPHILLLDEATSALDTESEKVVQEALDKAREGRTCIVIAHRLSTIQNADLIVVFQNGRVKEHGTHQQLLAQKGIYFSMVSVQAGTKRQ

inhibition (INH) [7]: Active
Structure (SMILES): COC(=O)c1c2c(c[n+]([O-])c1C)C(=O)C=C(NCc1ccccc1)C2=O
Activity (NCI-H460 [1]): inactive
Activity (NCI-H460 [2]): inactive
Activity (NCI-H460 [3]): inactive
Activity (NCI-H460 [4]): inactive
Activity [5]: inactive
inhibition [6]: Active
inhibition (DLD-1 [8]): Active
Activity (NCI-H460 [9]): Active
Activity (NCI-H460 [10]): inactive
Activity (DLD-1 [11]): inactive
Activity (NCI-H460 [12]): Active
Activity (NCI-H460 [13]): Active
Activity (MRC5): Non-Toxic
Activity (NCI-H460 [14]): inactive
Activity [15]: inactive
Activity (NCI-H460 [16]): inactive
inhibition (NCI-H460 [17]): Active
Activity (DLD-1 [18]): inactive
Activity (MCF-12A): Non-Toxic
inhibition (NCI-H460 [19]): Active
Activity (NCI-H460 [20]): inactive
Activity (NCI-H460 [21]): Active
Activity (NCI-H460 [22]): inactive
Activity (NCI-H460 [23]): Active
Activity (NCI-H460 [24]): Active
Activity (NCI-H460 [25]): Active
Activity (NCI-H460 [26]): Active
Activity [27]: inactive
inhibition [28]: Active
Activity [29]: inactive
Activity [30]: inactive
Activity (NCI-H460 [31]): inactive
Activity (DLD-1 [32]): inactive
Activity [33]: inactive
inhibition (NCI-H460 [34]): Active
Activity (NCI-H460 [35]): Active

Structure (SMILES): COc1cccc2c1C(=O)c1c(O)c3c(c(O)c1C2=O)C[C@@](O)(C(=O)CO)C[C@@H]3O[C@H]1C[C@H](N)[C@H](O)[C@H](C)O1
inhibition (NCI-H460 [36]): Active
inhibition (NCI-H460 [37]): inactive

Structure (SMILES): COc1cc([C@@H]2c3cc4c(cc3[C@@H](O[C@@H]3O[C@@H]5CO[C@@H](C)O[C@H]5[C@H](O)[C@H]3O)[C@H]3COC(=O)[C@H]23)OCO4)cc(OC)c1O
Activity [38]: inactive

Structure (SMILES): COC(=O)c1c2c(c(C)[n+]([O-])c1C)C(=O)C=C(NCc1ccccc1)C2=O
RatioGI50 (NCI/ADR-RES): 40
